# Test results: patent US5488049A, “Method of treating learning and memory disorders using benzothiadiazide derivatives as nootropic agents” (FIDIA - Georgetown Institute for the Neuro-Sciences, priority 1993, dated 1996)
# Columns and labels:
# Type in all cases: cell-based, rat
# AMPA receptor [1] = test: Fast application with double barrel pipette: AMPA receptor desensitization in outside-out patches from CAl hippocampal pyramidal neurons
# Experimental: (§1) Young rats (12-16 days old) were decapitated and the brains quickly removed and placed in ice-cold Ringer solution. Thin slices of hippocampus (250 μm) were then cut with a vibratome slicer (Lancer, St. Louis, Mo.) and kept in Ringer solution at 37° C. until use. The experiments were carried out at room temperature with the slice totally submerged in a 1 ml volume recording chamber and under continuous perfusion with Ringer solution at a rate of 6 ml/min using an upright Hoffman modulation contrast microscope (Carl Zeiss, Germany) equipped with a 40×water immersion objective.
# (§2) Media and drug application. The external Ringer solution contained (in mM): NaCl 120; KCl 3.1; CaCl2 2; MgCl2 1; KH2 PO4 1; NaHCO3 26; glucose 2.7; and it was continuously bubbled with 95% O2 and 5% CO2. Patch pipettes were filled with a solution containing (in mM): K-gluconate 140; MgCl2 1; ATP.Mg 2; EGTA 0.5; HEPES-KOH 10, pH 7.2. All the drugs under investigation were applied through the recording chamber perfusion system via parallel inputs having a common entry into the chamber. Agonist application was attained using two different systems that allowed a slow or a rapid solution change. Slow solution changes were used during recordings in whole-cell configuration and were obtained by exchanging the solution of the recording chamber within a few seconds. Fast solution changes were obtained with the use of the Y-shaped tubing method that allows complete exchange of solution in less than 10 ms, and is described in detail by Murase et al. (1989).
# Briefly, a polyethylene tubing (1 mm i.d.) is bent in a U-shaped, and another fine polyethylene tubing (50 μi.d.) and 10 mm length) is inserted into a small hole in the U-tubing making the tip of the Y-tubing. Solutions are fed to the Y-tubing by gravity, and negative pressure facilitates exchange of the solution. The tip of the Y-tubing is positioned 100 μm from the cell investigated, and upon opening and closing of a valve that controls the negative pressure, it was possible to respectively change rapidly and apply a number of different test solutions. This method was used to apply agonists to excised outside-out membrane patches. More rapid drug applications were used to apply agonists to excised outside-out membrane patches, and were obtained through a double-barrelled pipette positioned close to the recording pipette containing the membrane patch. […] The agonist was applied for a period of 150 ms and the time necessary for a complete exchange of the solution was less than 1 ms as measured at the opening of a patch pipette containing different dilutions of the drugs under study. […]
# Ionic currents in whole-cell configuration and outside-out excised membrane patches were monitored using the patch clamp technique (15). […]
# AMPA receptor [2] = test: Fast application with Y-tubing: dose-response on desensitization of glutamate current in outside-out patches from CAl pyramidal neurons; details: increasing doses, 5 μM MK-801
# Source text: as §2, with “Fast solution changes were obtained with the use of the Y-shaped tubing method that allows complete exchange of solution in less than 10 ms, and is described in detail by Murase et al. (1989).” left out
# Briefly, a polyethylene tubing (1 mm i.d.) is bent in a U-shaped, and another fine polyethylene tubing (50 μi.d.) and 10 mm length) is inserted into a small hole in the U-tubing making the tip of the Y-tubing. […] The agonist was applied for a period of 150 ms and the time necessary for a complete exchange of the solution was less than 1 ms as measured at the opening of a patch pipette containing different dilutions of the drugs under study. […]
# Dose-response studies were performed with the Y-tubing system, and analyzed with sigmoid interpolation (Graphpad Academic Press). […]
# [3] = test system: kainate-activated current; test: Selectivity: ionic current elicited by 20 μM kainate
# Experimental: as §1, §2
# Ionic currents in whole-cell configuration and outside-out excised membrane patches were monitored using the patch clamp technique (15).
structure (smiles),measurement,setting,value
"CC1Nc2ccc(Cl)cc2S(=O)(=O)N1 (racemic) [IDRA 21, 7-chloro-3-methyl-3,4-dihydro-2H 1,2,4-benzothiadiazine S-S dioxide]",removal of glutamate-induced desensitization,"AMPA receptor [1]; 1 mM IDRA 21, double barrel, outside-out patches, 4 of 5 patches",completely removed the desensitization induced by glutamate in 4 of 5 patches tested
same,desensitization of AMPA/Kainate receptors (summary),AMPA receptor [1]; summary statement,reduction in the desensitization of AMPA/Kainate receptors
same,desensitization of current activated by 100 μM glutamate,AMPA receptor [2],decreased by increasing doses
same,effect on kainate-activated current,"[3]; 1 mM compound, 20 μM kainate",failed to potentiate the kainate-activated current
same,effect on kainate responses at doses that decreased AMPA desensitization,[3]; all doses that decrease/inhibit AMPA desensitization,failed to affect kainate responses
